Reference: US9260439B2, “Dihydropyrrolopyrimidine derivatives” (PFIZER INC., priority 2014, dated 2016)

These compounds were tested against truncated PI3Kα (p110α/iSH2 p85α) (Homo sapiens (Human), UniProt P42336) (assay: PI3KA_Act fluorescence polarization kinase assay (Ki)). Conditions: 1 mM ATP.
Assay type: biochemical
In short: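 Ki values result from fitting fluorescence polarization signals to the Morrison equation for tight-binding competitive inhibitors. The detector was GST-Grp1 PH domain with TAMRA-PIP3, read after a 30 min room-temperature reaction of 0.5 nM truncated PI3Kα and 30 μM PIP2 at pH 7.4 in HEPES/NaCl/MgCl2/DTT/CHAPS buffer. Compounds were tested as 12-point 3-fold dilutions from 3 μM.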

truncated PI3Kα (p110α/iSH2 p85α), sequence (P42336 whole entry, the tested form may be a part): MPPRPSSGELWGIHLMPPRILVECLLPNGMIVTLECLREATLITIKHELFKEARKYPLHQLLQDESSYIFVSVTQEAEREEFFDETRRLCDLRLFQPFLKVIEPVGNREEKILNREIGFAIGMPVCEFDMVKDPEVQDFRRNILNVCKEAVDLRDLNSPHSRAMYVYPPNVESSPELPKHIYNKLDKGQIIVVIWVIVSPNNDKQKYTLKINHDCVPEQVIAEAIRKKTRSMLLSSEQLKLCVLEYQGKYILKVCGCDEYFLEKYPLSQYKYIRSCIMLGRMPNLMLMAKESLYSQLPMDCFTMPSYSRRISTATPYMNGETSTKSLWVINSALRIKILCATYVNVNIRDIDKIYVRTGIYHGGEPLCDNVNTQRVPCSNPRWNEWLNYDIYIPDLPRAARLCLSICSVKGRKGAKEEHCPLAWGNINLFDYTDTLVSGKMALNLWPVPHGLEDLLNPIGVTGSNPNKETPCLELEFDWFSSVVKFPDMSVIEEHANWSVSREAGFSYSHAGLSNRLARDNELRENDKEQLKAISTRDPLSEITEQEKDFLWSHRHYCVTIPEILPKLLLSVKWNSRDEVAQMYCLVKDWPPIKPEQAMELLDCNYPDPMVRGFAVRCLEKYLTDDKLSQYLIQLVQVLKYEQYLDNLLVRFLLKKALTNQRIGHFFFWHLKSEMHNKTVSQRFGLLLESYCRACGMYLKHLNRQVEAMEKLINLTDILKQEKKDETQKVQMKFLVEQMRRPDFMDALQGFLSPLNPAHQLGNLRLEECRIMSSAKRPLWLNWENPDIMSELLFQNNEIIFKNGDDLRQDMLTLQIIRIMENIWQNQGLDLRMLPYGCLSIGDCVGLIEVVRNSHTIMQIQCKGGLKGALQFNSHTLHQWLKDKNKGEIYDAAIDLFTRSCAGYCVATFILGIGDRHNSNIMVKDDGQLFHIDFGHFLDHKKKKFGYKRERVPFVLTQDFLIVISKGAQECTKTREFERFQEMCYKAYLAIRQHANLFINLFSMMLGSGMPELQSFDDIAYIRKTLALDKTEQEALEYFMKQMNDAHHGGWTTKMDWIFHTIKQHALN

Structure (SMILES) | PI3KA_Act Ki | Ki
C[C@@H]1COCCN1c1nc(-c2cnc(N)nc2)c2c(n1)N([C@]1(C)CCN(C(=O)OC(C)(C)C)C1)CC2 [Example 230] | 6.996 nM | –
C[C@@H]1COCCN1c1nc(-c2cnc(N)nc2)c2c(n1)N([C@@]1(C)CCN(S(C)(=O)=O)C1)CC2 [Example 231] | 1.493 nM | –
C[C@@H]1COCCN1c1nc(-c2cnc(N)nc2)c2c(n1)N([C@]1(C)CCN(S(C)(=O)=O)C1)CC2 [Example 232] | 4.263 nM | –
[2H]C1([2H])CN(c2nc(-c3cnc(N)nc3)c3c(n2)N([C@@]2(C)CCN(C(=O)C(C)(C)N)C2)CC3)CC([2H])([2H])O1 [Example 233] | – | < 0.018 nM
[2H]C1([2H])CN(c2nc(-c3cnc(N)nc3)c3c(n2)N([C@@]2(C)CCN(C(=O)C(C)(C)NC(=O)OC(C)(C)C)C2)CC3)CC([2H])([2H])O1 [Example 234] | – | 0.509 nM
[2H]C1([2H])OC([2H])([2H])C([2H])([2H])N(c2nc(-c3cnc(N)nc3)c3c(n2)N([C@@]2(C)CCN(C(=O)C(C)(C)NC(=O)OC(C)(C)C)C2)CC3)C1([2H])[2H] [Example 235] | – | 0.693 nM
[2H]C1([2H])OC([2H])([2H])C([2H])([2H])N(c2nc(-c3cnc(N)nc3)c3c(n2)N([C@@]2(C)CCN(C(=O)C4(C)CC4)C2)CC3)C1([2H])[2H] [Example 236] | – | < 0.018 nM
[2H]C1([2H])CN(c2nc(-c3cnc(N)nc3)c3c(n2)N([C@@]2(C)CCN(C(=O)C4(C)CC4)C2)CC3)CC([2H])([2H])O1 [Example 237] | – | 0.025 nM
[2H]C1([2H])OC([2H])([2H])C([2H])([2H])N(c2nc(-c3cnc(N)nc3)c3c(n2)N([C@@]2(C)CCN(C(=O)OC(C)(C)C)C2)CC3)C1([2H])[2H] [Example 238] | – | < 0.018 nM
[2H]C1([2H])CN(c2nc(-c3cnc(N)nc3)c3c(n2)N([C@@]2(C)CCN(C(=O)OC(C)(C)C)C2)CC3)CC([2H])([2H])O1 [Example 239] | – | < 0.018 nM
CC(=O)N1CC(C)(N2CCc3c(-c4cnc(N)nc4)nc(N4CCOCC4)nc32)C1 [Example 240, 1-{3-[4-(2-aminopyrimidin-5-yl)-2-(morpholin-4-yl)-5,6-dihydro-7H-pyrrolo[2,3-d]pyrimidin-7-yl]-3-methylazetidin-1-yl}ethanone] | 0.093 nM | –
CC(C)(O)C(=O)N1CC(N2CCc3c(-c4cnc(N)nc4)nc(N4CCOCC4)nc32)C1 [Example 241, 1-{3-[4-(2-aminopyrimidin-5-yl)-2-(morpholin-4-yl)-5,6-dihydro-7H-pyrrolo[2,3-d]pyrimidin-7-yl]azetidin-1-yl}-2-hydroxy-2-methylpropan-1-one] | 1.174 nM | –
CC(C)(O)C(=O)N1CC(C)(N2CCc3c(-c4cnc(N)nc4)nc(N4CCOCC4)nc32)C1 [Example 242, 1-{3-[4-(2-aminopyrimidin-5-yl)-2-(morpholin-4-yl)-5,6-dihydro-7H-pyrrolo[2,3-d]pyrimidin-7-yl]-3-methylazetidin-1-yl}-2-hydroxy-2-methylpropan-1-one] | 0.158 nM | –
CC(C)(N)C(=O)N1CC(C)(N2CCc3c(-c4cnc(N)nc4)nc(N4CCOCC4)nc32)C1 [Example 243, 2-amino-1-{3-[4-(2-aminopyrimidin-5-yl)-2-(morpholin-4-yl)-5,6-dihydro-7H-pyrrolo[2,3-d]pyrimidin-7-yl]-3-methylazetidin-1-yl}-2-methylpropan-1-one] | 0.165 nM | –
CCC(=O)NCC(=O)N1CC(N2CCc3c(-c4cnc(N)nc4)nc(N4CCOCC4)nc32)C1 [Example 244, N-(2-{3-[4-(2-aminopyrimidin-5-yl)-2-(morpholin-4-yl)-5,6-dihydro-7H-pyrrolo[2,3-d]pyrimidin-7-yl]azetidin-1-yl}-2-oxoethyl)propanamide] | 0.598 nM | –
CC1(C(=O)N2CC(N3CCc4c(-c5cnc(N)nc5)nc(N5CCOCC5)nc43)C2)CC1 [Example 245, {3-[4-(2-aminopyrimidin-5-yl)-2-(morpholin-4-yl)-5,6-dihydro-7H-pyrrolo[2,3-d]pyrimidin-7-yl]azetidin-1-yl}(1-methylcyclopropyl) methanone] | 4.212 nM | –
CC1(C(=O)N2CC(C)(N3CCc4c(-c5cnc(N)nc5)nc(N5CCOCC5)nc43)C2)CC1 [Example 246, {3-[4-(2-aminopyrimidin-5-yl)-2-(morpholin-4-yl)-5,6-dihydro-7H-pyrrolo[2,3-d]pyrimidin-7-yl]-3-methylazetidin-1-yl}(1-methylcyclopropyl) methanone] | 0.060 nM | –

Structure (SMILES) | PI3KA_Act Ki | Ki
COC(=O)N1CC(C)(N2CCc3c(-c4cnc(N)nc4)nc(N4CCOCC4)nc32)C1 [Example 247, methyl 3-[4-(2-aminopyrimidin-5-yl)-2-(morpholin-4-yl)-5,6-dihydro-7H-pyrrolo[2,3-d]pyrimidin-7-yl]-3-methylazetidine-1-carboxylate] | 0.055 nM | –
CC(C)(C)OC(=O)N1CC(N2CCc3c(-c4cnc(N)nc4)nc(N4CCOCC4)nc32)C1 [Example 248, tert-butyl 3-[4-(2-aminopyrimidin-5-yl)-2-(morpholin-4-yl)-5,6-dihydro-7H-pyrrolo[2,3-d]pyrimidin-7-yl]azetidine-1-carboxylate] | 0.212 nM | –
CC(C)(C)OC(=O)N1CC(C)(N2CCc3c(-c4cnc(N)nc4)nc(N4CCOCC4)nc32)C1 [Example 249, tert-butyl 3-[4-(2-aminopyrimidin-5-yl)-2-(morpholin-4-yl)-5,6-dihydro-7H-pyrrolo[2,3-d]pyrimidin-7-yl]-3-methylazetidine-1-carboxylate] | 0.019 nM | –
CNC(=O)N1CC(C)(N2CCc3c(-c4cnc(N)nc4)nc(N4CCOCC4)nc32)C1 [Example 250, 3-[4-(2-aminopyrimidin-5-yl)-2-(morpholin-4-yl)-5,6-dihydro-7H-pyrrolo[2,3-d]pyrimidin-7-yl]-N,3-dimethylazetidine-1-carboxamide] | 0.120 nM | –
Nc1ncc(-c2nc(N3CCOCC3)nc3c2CCN3C2CN(S(=O)(=O)C3CCC3)C2)cn1 [Example 251, 5-{7-[1-(cyclobutylsulfonyl)azetidin-3-yl]-2-(morpholin-4-yl)-6,7-dihydro-5H-pyrrolo[2,3-d]pyrimidin-4-yl}pyrimidin-2-amine] | 1.652 nM | –
Nc1ncc(-c2nc(N3CCOCC3)nc3c2CCN3C2CN(S(=O)(=O)N3CCC3)C2)cn1 [Example 252, 5-{7-[1-(azetidin-1-ylsulfonyl)azetidin-3-yl]-2-(morpholin-4-yl)-6,7-dihydro-5H-pyrrolo[2,3-d]pyrimidin-4-yl}pyrimidin-2-amine] | 0.158 nM | –
C[C@]1(N2CCc3c(-c4cnc(N)nc4)nc(N4CCOCC4)nc32)CCNC1.Cl [Example 253, 5-{7-[(3S)-3-methylpyrrolidin-3-yl]-2-(morpholin-4-yl)-6,7-dihydro-5H-pyrrolo[2,3-d]pyrimidin-4-yl}pyrimidin-2-amine hydrochloride] | 0.160 nM | –
Cl.Nc1ncc(-c2nc(N3CCOCC3)nc3c2CCN3[C@@H]2CNC[C@@H]2F)cn1 [Example 254, 5-{7-[(3R,4S)-4-fluoropyrrolidin-3-yl]-2-(morpholin-4-yl)-6,7-dihydro-5H-pyrrolo[2,3-d]pyrimidin-4-yl}pyrimidin-2-amine hydrochloride] | 1.893 nM | –
Cl.Nc1ncc(-c2nc(N3CCOCC3)nc3c2CCN3[C@H]2CNC[C@H]2F)cn1 [Example 255, 5-{7-[(3S,4R)-4-fluoropyrrolidin-3-yl]-2-(morpholin-4-yl)-6,7-dihydro-5H-pyrrolo[2,3-d]pyrimidin-4-yl}pyrimidin-2-amine hydrochloride] | 1.168 nM | –
CC[C@@]1(N2CCc3c(-c4cnc(N)nc4)nc(N4CCOCC4)nc32)CCNC1.Cl [Example 256, 5-{7-[(3R)-3-ethylpyrrolidin-3-yl]-2-(morpholin-4-yl)-6,7-dihydro-5H-pyrrolo[2,3-d]pyrimidin-4-yl}pyrimidin-2-amine hydrochloride] | 1.131 nM | –
CC[C@]1(N2CCc3c(-c4cnc(N)nc4)nc(N4CCOCC4)nc32)CCNC1.Cl [Example 257, 5-{7-[(3S)-3-ethylpyrrolidin-3-yl)-2-(morpholin-4-yl)-6,7-dihydro-5H-pyrrolo[2,3-d]pyrimidin-4-yl}pyrimidin-2-amine hydrochloride] | 0.955 nM | –
C[C@]1(N2CCc3c(-c4cnc(N)nc4)nc(N4CCOCC4)nc32)CCNC1=O [Example 258, (3S)-3-[4-(2-aminopyrimidin-5-yl)-2-(morpholin-4-yl)-5,6-dihydro-7H-pyrrolo[2,3-d]pyrimidin-7-yl]-3-methylpyrrolidin-2-one] | 31.787 nM | –
CC(=O)N1CC[C@@](C)(N2CCc3c(-c4cnc(N)nc4)nc(N4CCOCC4)nc32)C1 [Example 259, 1-{(3R)-3-[4-(2-aminopyrimidin-5-yl)-2-(morpholin-4-yl)-5,6-dihydro-7H-pyrrolo[2,3-d]pyrimidin-7-yl]-3-methylpyrrolidin-1-yl}ethanone] | 0.139 nM | –
CCC(=O)N1CC[C@](C)(N2CCc3c(-c4cnc(N)nc4)nc(N4CCOCC4)nc32)C1 [Example 260, 1-{(3S)-3-[4-(2-aminopyrimidin-5-yl)-2-(morpholin-4-yl)-5,6-dihydro-7H-pyrrolo[2,3-d]pyrimidin-7-yl]-3-methylpyrrolidin-1-yl}propan-1-one] | 0.030 nM | –
CCC(=O)N1CC[C@@](C)(N2CCc3c(-c4cnc(N)nc4)nc(N4CCOCC4)nc32)C1 [Example 261, 1-{(3R)-3-[4-(2-aminopyrimidin-5-yl)-2-(morpholin-4-yl)-5,6-dihydro-7H-pyrrolo[2,3-d]pyrimidin-7-yl]-3-methylpyrrolidin-1-yl}propan-1-one] | 0.143 nM | –
CC(C)C(=O)N1CC[C@](C)(N2CCc3c(-c4cnc(N)nc4)nc(N4CCOCC4)nc32)C1 [Example 262, 1-{(3S)-3-[4-(2-aminopyrimidin-5-yl)-2-(morpholin-4-yl)-5,6-dihydro-7H-pyrrolo[2,3-d]pyrimidin-7-yl]-3-methylpyrrolidin-1-yl}-2-methylpropan-1-one] | <0.018 nM | –
